Literature values as cited in publication PMC4594385 (Journal of Medical Physics / Association of Medical …, 2015).

Conditions: compared with femur uptake at 4 h; ref Banerjee et al. [1]

Structure (SMILES): O=P([O-])(O)CN(CCN(CP(=O)([O-])O)CP(=O)(O)O)CP(=O)([O-])O.[153Sm+3] [^153Sm-EDTMP]
- Bone uptake: 3.72 %ID/g
